{
  "source": "paper PMC12040969",
  "about": "“Design, synthesis, in silico studies, and apoptotic antiproliferative activity of novel thiazole-2-acetamide derivatives as tubulin polymerization inhibitors” (Frontiers in Chemistry, 2025)",
  "key": {"[1]": {"test_system": "four human cancer cell lines (HCT-116, PC-3, MCF-7, MDAMB-231)", "test": "Antiproliferative assay, mean of four cell lines (GI50)"}, "[2]": {"test": "Cell viability assay (MTT), normal cells", "type": "cell-based", "conditions": "human, MCF-10A normal mammary gland epithelial cells, four-day incubation"}, "- MDAMB-231": {"test_system": "- MDAMB-231", "test": "Antiproliferative assay (MTT) MDAMB-231"}, "pancreatic - MDAMB-231": {"test_system": "pancreatic - MDAMB-231", "test": "Antiproliferative assay (MTT) MDAMB-231", "conditions": "read-out: Antiproliferative activity IC50 ± SEM (µM) MDAMB-231; MDAMB-231, MTT"}, "colon - HCT-116": {"test_system": "colon - HCT-116", "test": "Antiproliferative assay (MTT) HCT-116"}, "tubulin": {"test_system": "tubulin", "test": "Tubulin polymerization inhibition assay (Cytoskeleton kit);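 as to all read-outs here: Cell-free tubulin polymerization read by fluorescent reporter enhancement over a 30 min reaction, with the compound-free kit control taken as 100% activity and inhibition relative to it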", "conditions": "for Tub. enzyme inhibition assay %inhibition: 30 min, codes 522-537 run; for Tub. enzyme inhibition assay K. Activity: control = 120, codes 522-537 run"}, "breast - MCF-7": {"test_system": "breast - MCF-7", "test": "Antiproliferative assay (MTT) MCF-7"}, "prostatic - PC-3": {"test_system": "prostatic - PC-3", "test": "Antiproliferative assay (MTT) PC-3"}},
  "data": [
    {"smiles": "Cc1nc(SCC(=O)Nc2nc(-c3ccc(Cl)cc3)cs2)sc1C(=O)/C=C/c1ccccc1", "note": "[Compound 10f, (E)-N-(4-(4-chlorophenyl)thiazol-2-yl)-2-((5-cinnamoyl-4-methylthiazol-2-yl)thio) acetamide]", "values": [
      {"measurement": "Reduced potency compared to doxorubicin (GI50)", "setting": "[1]; GI50 ratio", "result": "at least 2.5 fold"},
      {"measurement": "Reduced potency compared to sorafenib (GI50)", "setting": "[1]; GI50 ratio", "result": "≥ 1.5", "unit": "fold"},
      {"measurement": "IC50", "setting": "[1]; Homo sapiens, read-out: GI50 (average IC50)", "result": 18, "unit": "µM"},
      {"measurement": "viability at 96 h, 50 µM", "setting": "[2]", "result": 86, "unit": "%"},
      {"measurement": "Average of Relative viability of cells (%)", "setting": "- MDAMB-231; MDAMB-231, 1.56 µM", "result": 96.1, "unit": "%"},
      {"measurement": "Average of Relative viability of cells (%)", "setting": "- MDAMB-231; MDAMB-231, 3.125 µM", "result": 79.5, "unit": "%"},
      {"measurement": "Average of Relative viability of cells (%)", "setting": "- MDAMB-231; MDAMB-231, 6.25 µM", "result": 63.2, "unit": "%"},
      {"measurement": "Average of Relative viability of cells (%)", "setting": "- MDAMB-231; MDAMB-231, 12.5 µM", "result": 38.7, "unit": "%"},
      {"measurement": "Average of Relative viability of cells (%)", "setting": "- MDAMB-231; MDAMB-231, 25 µM", "result": 27.4, "unit": "%"},
      {"measurement": "Average of Relative viability of cells (%)", "setting": "- MDAMB-231; MDAMB-231, 50 µM", "result": 17.8, "unit": "%"},
      {"measurement": "Average of Relative viability of cells (%)", "setting": "- MDAMB-231; MDAMB-231, 100 µM", "result": 14.3, "unit": "%"},
      {"measurement": "IC50", "setting": "pancreatic - MDAMB-231", "result": "10 ± 0.9", "unit": "µM"},
      {"measurement": "Average of Relative viability of cells (%)", "setting": "colon - HCT-116; HCT-116, 1.56 µM", "result": 100, "unit": "%"},
      {"measurement": "Average of Relative viability of cells (%)", "setting": "colon - HCT-116; HCT-116, 3.125 µM", "result": 90.2, "unit": "%"},
      {"measurement": "Average of Relative viability of cells (%)", "setting": "colon - HCT-116; HCT-116, 6.25 µM", "result": 71.1, "unit": "%"},
      {"measurement": "Average of Relative viability of cells (%)", "setting": "colon - HCT-116; HCT-116, 12.5 µM", "result": 63.4, "unit": "%"},
      {"measurement": "Average of Relative viability of cells (%)", "setting": "colon - HCT-116; HCT-116, 25 µM", "result": 50.5, "unit": "%"},
      {"measurement": "Average of Relative viability of cells (%)", "setting": "colon - HCT-116; HCT-116, 50 µM", "result": 35.7, "unit": "%"},
      {"measurement": "Average of Relative viability of cells (%)", "setting": "colon - HCT-116; HCT-116, 100 µM", "result": 23.6, "unit": "%"},
      {"measurement": "IC50", "setting": "colon - HCT-116; read-out: Antiproliferative activity IC50 ± SEM (µM) HCT-116, HCT-116, MTT", "result": "25 ± 1.8", "unit": "µM"},
      {"measurement": "Tub. enzyme inhibition assay %inhibition", "setting": "tubulin; conc 0.01 (unit not given)", "result": 5.23, "unit": "%"},
      {"measurement": "Tub. enzyme inhibition assay K. Activity", "setting": "tubulin; conc 0.01 (unit not given)", "result": 113.72},
      {"measurement": "Tub. enzyme inhibition assay %inhibition", "setting": "tubulin; conc 0.1 (unit not given)", "result": 15.6, "unit": "%"},
      {"measurement": "Tub. enzyme inhibition assay K. Activity", "setting": "tubulin; conc 0.1 (unit not given)", "result": 101.33},
      {"measurement": "Tub. enzyme inhibition assay %inhibition", "setting": "tubulin; conc 1 (unit not given)", "result": 34.8, "unit": "%"},
      {"measurement": "Tub. enzyme inhibition assay K. Activity", "setting": "tubulin; conc 1 (unit not given)", "result": 78.182},
      {"measurement": "Tub. enzyme inhibition assay %inhibition", "setting": "tubulin; conc 10 (unit not given)", "result": 58.9, "unit": "%"},
      {"measurement": "Tub. enzyme inhibition assay K. Activity", "setting": "tubulin; conc 10 (unit not given)", "result": 49.376},
      {"measurement": "Tub. enzyme inhibition assay %inhibition", "setting": "tubulin; conc 100 (unit not given)", "result": 87.6, "unit": "%"},
      {"measurement": "Tub. enzyme inhibition assay K. Activity", "setting": "tubulin; conc 100 (unit not given)", "result": 14.884},
      {"measurement": "IC50", "setting": "tubulin; read-out: Tubulin inhibition IC50 ± SEM, triplicate for each tested concentration", "result": "5.62 ± 0.17", "unit": "µM"},
      {"measurement": "Tub. (IC50) IC50±SD", "setting": "tubulin; supplement raw data, lab codes", "result": "2.88 ± 0.09", "unit": "µg/mL"},
      {"measurement": "Average of Relative viability of cells (%)", "setting": "breast - MCF-7; MCF-7, 1.56 µM", "result": 100, "unit": "%"},
      {"measurement": "Average of Relative viability of cells (%)", "setting": "breast - MCF-7; MCF-7, 3.125 µM", "result": 84.7, "unit": "%"},
      {"measurement": "Average of Relative viability of cells (%)", "setting": "breast - MCF-7; MCF-7, 6.25 µM", "result": 68.3, "unit": "%"},
      {"measurement": "Average of Relative viability of cells (%)", "setting": "breast - MCF-7; MCF-7, 12.5 µM", "result": 41.9, "unit": "%"},
      {"measurement": "Average of Relative viability of cells (%)", "setting": "breast - MCF-7; MCF-7, 25 µM", "result": 33.5, "unit": "%"},
      {"measurement": "Average of Relative viability of cells (%)", "setting": "breast - MCF-7; MCF-7, 50 µM", "result": 27.4, "unit": "%"},
      {"measurement": "Average of Relative viability of cells (%)", "setting": "breast - MCF-7; MCF-7, 100 µM", "result": 19.2, "unit": "%"},
      {"measurement": "IC50", "setting": "breast - MCF-7; read-out: Antiproliferative activity IC50 ± SEM (µM) MCF-7, MCF-7, MTT", "result": "14 ± 1.1", "unit": "µM"},
      {"measurement": "Average of Relative viability of cells (%)", "setting": "prostatic - PC-3; PC-3, 1.56 µM", "result": 100, "unit": "%"},
      {"measurement": "Average of Relative viability of cells (%)", "setting": "prostatic - PC-3; PC-3, 3.125 µM", "result": 91.8, "unit": "%"},
      {"measurement": "Average of Relative viability of cells (%)", "setting": "prostatic - PC-3; PC-3, 6.25 µM", "result": 70.5, "unit": "%"},
      {"measurement": "Average of Relative viability of cells (%)", "setting": "prostatic - PC-3; PC-3, 12.5 µM", "result": 58.2, "unit": "%"},
      {"measurement": "Average of Relative viability of cells (%)", "setting": "prostatic - PC-3; PC-3, 25 µM", "result": 46.7, "unit": "%"},
      {"measurement": "Average of Relative viability of cells (%)", "setting": "prostatic - PC-3; PC-3, 50 µM", "result": 32.3, "unit": "%"},
      {"measurement": "Average of Relative viability of cells (%)", "setting": "prostatic - PC-3; PC-3, 100 µM", "result": 24.2, "unit": "%"},
      {"measurement": "IC50", "setting": "prostatic - PC-3; read-out: Antiproliferative activity IC50 ± SEM (µM) PC-3, PC-3, MTT", "result": "22 ± 1.6", "unit": "µM"}
    ]}
  ]
}
